Data taken from patent publication US11406600B2, “Anhydrous dasatinib-containing preparation” (SAWAI PHARMACEUTICAL CO., LTD., priority 2017, dated 2022).

Legend:
[1] = Color change (ΔE) after light irradiation, spectral color contrast meter; format: physicochemical; conditions: irradiated with 10000 Lux./hr of light for 5 days; based on color tone immediately after manufacturing; mean of 5 tablets
Protocol: Using a spectral color contrast meter (NIPPON DENSHOKU INDUSTRIES CO., LTD., Model: SE-6000), the color change ΔE value of the preparation irradiated with 10000Lux./hr of light for 5 days was measured based on the color tone of the preparation immediately after manufacturing, and the mean value of the measurement value of 5 tablets was calculated.
(§1) In the anhydrous dasatinib-containing tablet having the film-coating part, the amount of the film-coating part and the percentage of the titanium oxide in the film-coating part were varied, respectively, and the color change (ΔE) and the total related substances (%) of the preparations irradiated with 10000 Lux./hr of light for 5 days were determined, respectively.
For color change, the ΔE value of the amount of color change was measured using a spectral color contrast meter (NIPPON DENSHOKU INDUSTRIES CO., LTD., Model: SE-6000) based on the color tone of the drug product immediately after manufacturing, and the mean value of the measured value of 5 tablets was calculated.

[2] = Total related substances (%) by liquid chromatography after light irradiation; format: physicochemical; conditions: irradiated with 10000 Lux./hr of light for 5 days; peak area ratio, LC, 230 nm
Protocol: In the description, the purities of the anhydrous dasatinib were evaluated using liquid chromatography as an assessment of the stability. The ratio of the peak area of related substances derived from the anhydrous dasatinib to that of the anhydrous dasatinib was calculated to determine the total related substances (%).
as §1
For the total related substances, the purities of the anhydrous dasatinib were evaluated using liquid chromatography as shown below. The ratio of the peak area of the related substances derived from the anhydrous dasatinib to that of the anhydrous dasatinib was calculated to determine the total related substances (%). Specifically, a column was octadecylsilated silica gels (particle size, 5 μm; column inner diameter, 4.6 mm; column length, 250 mm; GL Sciences), mobile phase A was 0.01 M aqueous potassium dihydrogen phosphate solution, mobile phase B was acetonitrile, and the detector was ultraviolet absorbance spectrophotometer (measured wavelength: 230 nm), respectively. […]

[3] = 1.2 million Lux.·hr total illumination and 200 W·hr/m^2 total near-ultraviolet radiation energy; cited from earlier work

| Structure (SMILES) | color change ΔE value [1] | total related substances (%) [2] [%] | stability under light stress testing [3] |
| --- | --- | --- | --- |
| Cc1nc(Nc2ncc(C(=O)Nc3c(C)cccc3Cl)s2)cc(N2CCN(CCO)CC2)n1 [Comparative Example 1, anhydrous dasatinib] | 18.56 | 0.51 |  |
| Cc1nc(Nc2ncc(C(=O)Nc3c(C)cccc3Cl)s2)cc(N2CCN(CCO)CC2)n1 [dasatinib hydrate] |  |  | no changes were observed |
